Experiments:
Format in all cases: in vivo
[1] = tested on: Green Peach Aphid (GPA) (Myzus persicae); experiment: Bioassay on green peach aphid (GPA), foliar spray on cabbage seedlings; details: green peach aphid, 200 ppm, read-out: % Mortality GPA 200 ppm
Description: Certain molecules disclosed in this document were tested against GPA using procedures described in the following example. In the reporting of the results, the “GPA Rating Table” was used (See Table Section).
Cabbage seedlings grown in 3-inch pots, with 2-3 small (3-5 cm) true leaves, were used as test substrate. The seedlings were infested with 20-50 GPA (wingless adult and nymph stages) one day prior to chemical application. Four pots with individual seedlings were used for each treatment. Test compounds (2 mg) were dissolved in 2 mL of acetone/methanol (1:1) solvent, forming stock solutions of 1000 ppm test compound. […] A hand-held aspirator-type sprayer was used for spraying a solution to both sides of […] leaves until runoff. Reference plants (solvent check) were sprayed with the diluent only containing 20% by volume of acetone/methanol (1:1) solvent. Treated plants were held in a holding room for three days at approximately 25° C. and ambient relative humidity (RH) prior to grading. Evaluation was conducted by counting the number of live aphids per plant under a microscope. […] Corrected % Control=100*(X−Y)/X • where • X=No. of live aphids on solvent check plants and • Y=No. of live aphids on treated plants
The results are indicated in the table entitled “Table 5: Biological Results” (See Table Section).

[2] = tested on: Beet Armyworm (BAW) (Spodoptera exigua); experiment: Bioassay on beet armyworm (BAW), 128-well diet tray assay; details: Spodoptera exigua; beet armyworm, 50 μg/cm^2; read-out: % Mortality BAW 50 μg/cm^2
[3] = tested on: Corn Earworm (CEW) (Helicoverpa zea); experiment: Bioassay on corn earworm (CEW), 128-well diet tray assay; details: Helicoverpa zea; corn earworm, 50 μg/cm^2; read-out: % Mortality CEW 50 μg/cm^2
Method in brief: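 Activity was scored as percent larval mortality per well, averaged across eight wells and reported on a rating scale. Diet trays (128-well) were kept at 25° C with 14:10 light-dark for five to seven days.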

Structure (SMILES) | mortality at 200 ppm [1] [%] | mortality at 50 µg/cm2 [2] [%] | mortality at 50 µg/cm2 [3] [%]
COc1cc(C)c(-n2c(C)cs/c2=N\N=C\c2ccc(-c3ncn(-c4ccc(OC(F)(F)F)cc4)n3)cc2)c(C)c1 [Compound 172C] | 0 | 50 to 100 | 50 to 100
CCC(C)c1ccccc1N1/C(=N/N=C/c2ccc(-c3ncn(-c4ccc(OC(F)(F)F)cc4)n3)cc2)SCC1(C)O (stereo not drawn) [Compound 243C] | 0 to 80 | 50 to 100 | 50 to 100
Cc1cccc(C)c1/N=C(/N/N=C/c1ccc(-c2ncn(-c3ccc(OC(F)(F)F)cc3)n2)cc1)SCc1ccc(C(F)(F)F)o1 [Compound 16C] | 0 | 50 to 100 | 50 to 100
CC1CS/C(=N\N=C\c2ccc(-c3ncn(-c4ccc(OC(F)(F)F)cc4)n3)cc2)N(c2ccccc2C(C)C)C1 (racemic) [Compound 178C] | 0 | 50 to 100 | 50 to 100
CC(C)=Cc1ccccc1N1CCS/C1=N\N=C\c1ccc(-c2ncn(-c3ccc(OC(F)(F)F)cc3)n2)cc1 [Compound 151C] | 0 to 80 | 50 to 100 | 50 to 100
COC(=O)c1ccc(CS/C(=N\c2c(C)cccc2C)N/N=C/c2ccc(-c3ncn(-c4ccc(OC(F)(F)F)cc4)n3)cc2)cc1 [Compound 12C] | 0 to 80 | 50 to 100 | 50 to 100
O=C1CS/C(=N\N=C\c2ccc(-c3ncn(-c4ccc(OC(F)(F)F)cc4)n3)cc2)N1c1ccccc1-c1ccccc1 [Compound 96C] | 0 to 80 | 50 to 100 | 50 to 100
Cc1cccc(C)c1N1CCCCS/C1=N\N=C\c1ccc(-c2ncn(-c3ccc(OC(F)(F)F)cc3)n2)cc1 [Compound 211C] | 0 | 50 to 100 | 50 to 100
CC(C)c1ccccc1N1C(=O)CCS/C1=N\N=C\c1ccc(-c2ncn(-c3ccc(OC(F)(F)F)cc3)n2)cc1 [Compound 224C] | 0 to 80 | 50 to 100 | 50 to 100
Cc1cccc(C)c1/N=C(/N/N=C/c1ccc(-c2ncn(-c3ccc(OC(F)(F)F)cc3)n2)cc1)SCc1ccc(C(=O)O)cc1 [Compound 6C] | 0 | 50 to 100 | 50 to 100
COc1ccc(N2/C(=N/N=C/c3ccc(-c4ncn(-c5ccc(OC(F)(F)F)cc5)n4)cc3)SCC2(C)O)c(C)c1 (stereo not drawn) [Compound 245C] | 0 to 80 | 50 to 100 | 50 to 100
CCc1ccccc1N1C(=O)CS/C1=N\N=C\c1ccc(-c2ncn(-c3ccc(OC(F)(F)F)cc3)n2)cc1 [Compound 94C] | 0 | 50 to 100 | 50 to 100
Cc1cccc(C)c1-n1c(-c2ccc(C(=O)O)cc2)cs/c1=N\N=Cc1ccc(-c2ncn(-c3ccc(OC(F)(F)F)cc3)n2)cc1 [Compound 77C] | 0 to 80 | 50 to 100 | 50 to 100
Cc1cccc(C)c1/N=C(/N/N=C/c1ccc(-c2ncn(-c3ccc(OC(F)(F)F)cc3)n2)cc1)SCc1ccccc1F [Compound 11C] | 0 | 50 to 100 | 50 to 100
COCCOC(C)C(=O)OCS/C(=N\c1c(C)cccc1C)N/N=C/c1ccc(-c2ncn(-c3ccc(OC(F)(F)F)cc3)n2)cc1 (stereo not drawn) [Compound 41C] | 0 | 50 to 100 | 50 to 100
Cc1cccc(C)c1/N=C(/N/N=C/c1ccc(-c2ncn(-c3ccc(OC(F)(F)F)cc3)n2)cc1)SCc1c(-c2ccccc2)noc1C [Compound 20C] | 0 | 50 to 100 | 50 to 100
